Assay [1] relates to Aedes aegypti mosquitoes. Put plainly: field test of the luring effect: open water tanks, one treated with heneicosane solution. The assay is classed as in vivo. As for the experimental part:
Fifteen open tanks with water filled to the top were kept in the open. All the tanks were made of same material, were of the same size and contained same amount of water from the same source. The tanks were numbered consecutively and allowed to remain for a week.
All the fifteen tanks were drained of water and thoroughly cleaned. Subsequently, they were filled with water from the same source. In tank No. 1, a predetermined amount of a solution of heneicosane in n-hexane (1% w/v) was added. After fifteen days, water from each tank was analysed.
Example No. 4 was repeated 14 times with heneicosane being added in tank Nos. 2 to 15 consequentially.
Example Nos. 4 and 5 were repeated with heneicosane dissolved in n-pentane.
The above example was repeated with varying concentrations of heneicosane in the solvent.

Assay [2] concerns Aedes aegypti mosquitoes. Put plainly: oviposition attractant effect of semio-chemicals identified in larval conditioned water. The assay is classed as in vivo. An excerpt:
The present invention also relates to a process for the preparation of compositions for use in lure and/or killing of Aedes aegypti mosquitoes. The present invention is based on the unexpected finding that Aedes aegypti mosquitoes tend to lay eggs in stagnant water where eggs of the same species of mosquitoes had been laid previously. This led the inventors to analyse various samples of water which in turn led to the finding that water in which eggs had previously been laid by Aedes aegypti mosquitoes and which had hatched into larval stage contained various semio-chemicals. Analysis of these semio-chemicals identified them as heneicosane, nonacosane, octadecane, isopropyl myristate and docosane. […] When, stagnant water in which Aedes aegypti mosquitoes had bred earlier was left untouched the incidence of further egg laying in the same water and thriving of larval population increased. […]
Aedes aegypti mosquitoes are bred and the water is collected for isolation where the mosquitoes are at larval stage. […] The extractant is analysed by various spectral techniques like IR, NMR and GCMS and the five semio-chemicals identified are heneicosane, nonacosane, octadecane, isopropyl myristate and decosane.

Consider `CCCCCCCCCCCCCCCCCCCCC` [heneicosane, n-heneicosane], for which the “attraction of mosquitoes to lay eggs in the treated tank” value in the assay with Aedes aegypti mosquitoes [1] (Example 4 repeated 14 times with heneicosane added in tank Nos. 2 to 15 consequentially) is on record as “each time the tank containing heneicosane attracted Aedes aegypti mosquitoes to lay their eggs therein”. For the same compound, in the assay on Aedes aegypti mosquitoes [1] (Example Nos. 4 and 5 repeated with heneicosane dissolved in n-pentane), the “luring result with another solvent” value is given as “The results were exactly the same”. Moreover, the “mosquito larvae found in tanks (egg laying lured to treated tank)” value in the assay with Aedes aegypti mosquitoes [1] (field conditions, 15 open tanks, solution of heneicosane in n-hexane (1% w/v) added to tank No. 1, after fifteen days) was “only tank No. 1 containing the heneicosane contained mosquito larvae”. In addition, the “effectiveness as oviposition attractant among the five identified semio-chemicals” value with Aedes aegypti mosquitoes [2] (compared with nonacosane, octadecane, isopropyl myristate and docosane) is “most effective oviposition attractant”. Further, the “site of egg laying, stagnant water versus water containing heneicosane” value in the assay on Aedes aegypti mosquitoes [2] (stagnant water kept alongside water containing heneicosane) is on record as “the entire egg laying took place only in water containing heneicosane”.
